Data on nine molecules can be found in patent publication US11931347B2, “Method of screening for agents for differentiating stem cells” (MINERVA BIOTECHNOLOGIES CORPORATION, priority 2015, dated 2024).

Test [1] relates to T47D breast cancer cells. The experiment in a line: cancer cell proliferation assay (Calcein live cell stain). The format is cell-based, human. Conditions: T47D, Calcein assay after 120 hours, 40-2.5 uM. On the procedure: These analogs of MN1194 and 1186 were also tested in a cell growth assay (FIGS. 107A1-107H6 and FIG. 108A1-108H6, respectively). In this experiment, both parent compound and analogs thereof were added to normal cell culture media to final concentrations of 40 uM, 20 uM, 10 uM, 5 uM or 2.5 uM. For comparison, previously known cancer cell migration inhibitors SU11274 and MN1204 were included in the same experiment. […] Relative cell proliferation is quantified on a standard plate reader that reads the fluorescence of the Calcein that is taken up by live cells.
Small molecule inhibition of cancer cell proliferation studies were also performed on several cancer sub-types. […] The small molecules of the invention had the most robust effect on T47D breast cancer cells, which are highly positive for MUC1* growth factor receptor, and its activating ligands NME7AB and NME7-X1.
For the cancer cell proliferation experiment cancer cells were plated at constant densities (6000 cells/well) into a 96-well White-walled/Clear-bottom Tissue Culture Treated plate (Corning Incorporated, Big Flats, N.Y.). Small molecule analogs are added at T=24 hours in media with 2% FBS. Following the addition of the small molecules, the cells remain untouched for 120 hours with visual confirmations/inspections at 24, 48, 72 and 96 hours post plating. At the 120 hour mark a calcein fluorescence assay (Thermo Fisher Scientific, Waltham, Mass.) is performed on the plate. Calcein fluorescence (final concentration 0.5 uM) is used to assess cell viability. Cancer cell fluorescence is measured in a TECAN SAFIRE^2 spectrophotometer plate reader. The plate is then imaged using an Olympus IX71 fluorescence imaging microscope and montage of the resulting images are assembled using ImageJ.

Test [2] has as its system T47D breast cancer cells. The test can be described thus: cancer cell migration, invasion assay (Platypus/Oris system). The test is classed as cell-based, human. Conditions: T47D; for inhibition of cancer cell migration: 120 hours; for pIC50: Homo sapiens, curves calculated from 72 hour post dosing time point, read-out: IC50 of inhibition of cancer cell migration. The protocol: We then tested an expanded panel of agents, including agents known to inhibit cancer growth or migration (FIG. 17) (Horm et al., 2012; Meng & Yue, 2014; Zhen et al., 2014), which is characteristic of aggressive or metastatic cancers. We also synthesized a series of novel small molecules, tested them in the stem cell drug screening assay, and then synthesized analogs of the best hits. These small molecules are pictured in FIGS. 18-27. Both the known compounds and the novel compounds were tested in the stem cell drug screening assay. The effects of the small molecules on naïve versus primed state stem cells are shown in the photographs of FIGS. 29-72. The small molecules pictured in FIGS. 17-27 and the biologicals were also tested in a cancer cell migration assay. A structure activity relationship table is seen in FIG. 28. Potent cancer cell migration is characteristic of cancer cell invasion of other tissues and of metastasis. Typical migration assays involve coating a cell culture plate with fibronectin, collagen or the like, plating cancer cells and making a scar across through the cells and measuring the time it takes for the cancer cells to invade the void space. An alternative approach that gives more reliable data is the Platypus System which is a special multi-well cell culture plate with a juxtaposed set of plugs that block off a circle in the center of each well. Cancer cells are plated while the plugs are in place, then they are removed after the cells attach to the plate surface. […] A bar graph summarizing the results of the known anti-migration compounds compared to the anti-MUC1* Fab E6 and the first few small molecules synthesized is shown in FIG. 73. The effect of two novel small molecules MN1186 and MN1194, compared to the known anti-migration molecule SU11274, is shown in FIG. 75A-75U. FIG. 75V is a graph showing the measured inhibition of cancer cell migration at time 0, 24 hours or 48 hours for a number of compounds. […] FIG. 75X is a graph showing how IC50's of the small molecules of the invention were measured and calculated.
Percent inhibition of cancer cell migration was performed in a wound healing assay. The Percent area that the invading cancer cells occupied, in the presence of a drug candidate compared to the controls, was quantified by Image J cell software which enables cell counting from photographs. IC50's were calculated by performing migration experiments at several compound concentrations and then applying Hill's equation. Inhibition of cancer cell proliferation was quantified by automated cell counting in the presence or absence of a drug candidate. Here, the potency of the drug candidate was simply scored 4 for the highest degree of inhibition and 0 for the lowest. […] The effect of each drug candidate was scored 0-4, with 4 being the highest in inhibiting cell proliferation (FIG. 28).
For the cancer cell migration experiment cancer cells were plated at varying densities into an Oris Cell Migration Assay Collagen-1 coated 96-well plate (Platypus Technologies LLC, Madison, Wis.). The Collagen-1 coated 96-well plate incorporates a specific vacuum plug which attaches to the bottom of each well, creating an area in which the cells cannot grow into. Once the cells have been plated at high densities into each well, they are allotted an 18-24 hour time period to attach to the bottom of the wells. Post-24 hour plugs are removed from the plate and then small molecule analogs are added to the wells. Images are taken of each well and represent time 0 (T=0) for each well. Images are taken of the wells at the 24, 48, 72, 96 and 120 hour time points. Data analysis is conducted using the images taken at these specific time point. Images are imported into ImageJ (Rasband, W. S., ImageJ, U. S. National Institutes of Health, Bethesda, Md., USA, http://imagej.nih.gov/ij/, 1997-2016.) and the area remaining free of cells is calculated. […]

The test system of test [3] is human primed state stem cells. The test can be described thus: stem cell drug screening assay on primed state stem cells. The test is classed as cell-based. On the set-up: key to effect on primed state stem cells, score: “−” indicates that at 6 uM the drug candidate did not have an obvious effect on the pluripotency or proliferation of the stem cells; A “+” indicates a mild effect; a score of −, or +, ++, +++, or ++++ is given; a score of −, or +, ++, +++, or ++++ is given; “++++” indicates a profound effect on pluripotency or proliferation. On the procedure: (§1) The stem cell screening assay, was performed in both the presence and absence of the stem cell growth factors: NME7AB for growing naïve stem cells or FGF for growing primed stem cells. If the cognate growth factor was present, then the biological or small molecule would have to compete away the growth factor to get an effect. Therefore, we expected to see more of an effect when the growth factor, FGF for primed stem cells or NME7AB or NME1 dimers for naïve stem cells, was absent. The effect of the compounds on stem cells was visually determined and compounds were ranked 0-4, with 4 being the greatest effect and 0 being no observable effect. The major effect that was observed was a change from pluripotent stem cell morphology, which is a cobblestone pattern of small round cells with a large nucleus to cytoplasm ratio, to that of differentiating stem cells, which are elongated, large and flattened cells with a smaller nucleus to cytoplasm ratio. […] The compounds were added to a final concentration of 6 uM to either naïve state stem cells or primed state stem cells. In this particular case, the naïve state stem cells were maintained in a naïve state by culturing in a media containing NME7AB or NME1 dimers. However, other methods such as 2i and 5i (Silva et al., 2008, Nichols and Smith, 2009, Theunissen et al., 2014)] can be used to maintain stem cells in a more naïve state. In this case primed state stem cells were cultured in bFGF over a layer of MEFs, although it is known that any bFGF containing media will maintain stem cells in the primed state.
Stem cells whether embryonic or induced pluripotent stem (iPS) cells were cultured in a minimal, serum-free media that contained human recombinant bFGF at a concentration of 8 ng/mL. The stem cells were plated over a layer of inactivated mouse embryonic fibroblasts, aka MEFs, which secrete additional uncharacterized growth factors and cytokines.
(§2) Human naïve state and primed stem cells were cultured in parallel for at least 5 passages to guarantee normal differentiation-free growth. The stem cells were plated in 12-well cell culture plates with 50,000 cells per well. Cells were cultured in their respective media, either bFGF media or NME7AB media for 24 hours. Media was then removed and replaced with media devoid of bFGF or NME7AB, when indicated. Agents being tested for their ability to induce differentiation of naïve stem cells were added to the media at the concentrations indicated. After 72 hours, photographs were taken see FIGS. 1-10.
(§3) Human naïve state and primed stem cells were cultured in parallel for at least 5 passages to guarantee normal differentiation-free growth. The stem cells were plated in 12-well cell culture plates with 50,000 cells per well. Cells were cultured in their respective media, either bFGF media or NME7AB media for 24 hours. Media was then removed and replaced with media devoid of bFGF or NME7AB. […] Media was changed after 48 hours and replaced with fresh media containing the BRD4 inhibitors. After 4 days the experiment was stopped. Photographs were taken and cell pellets collected for further analysis, see FIGS. 11-16.

Test [4] relates to human naïve state stem cells. The experiment in a line: stem cell drug screening assay on naïve state stem cells. The test is classed as cell-based. On the set-up: key to effect on naïve stem cells, score: “−” indicates that at 6 uM the drug candidate did not have an obvious effect on the pluripotency or proliferation of the stem cells; A “+” indicates a mild effect; a score of −, or +, ++, +++, or ++++ is given; a score of −, or +, ++, +++, or ++++ is given; “++++” indicates a profound effect on pluripotency or proliferation. The note with it: 6 uM, 3 days, NME7AB absent. The protocol:
as §1
Stem cells whether embryonic or induced pluripotent stem (iPS) cells were cultured in a minimal, serum-free media that contained human recombinant NME7AB at a concentration of 2-32 nM wherein 4-8 nM is preferred and 4 nM is more preferred. To facilitate surface attachment, cell culture plates were coated with an anti-MUC1* monoclonal antibody called MN-C3 or C3 or MN-C8 at a concentration of 2-100 ug/mL coating solution, wherein 3-50 ug/mL is preferred and 6-12.5 ug/mL is more preferred. In these experiments, 12.5 ug/mL of MN-C3 was used. Antibody coated plates were incubated at 4 degrees C. overnight prior to plating stem cells. A Rho kinase I inhibitor was added to enhance surface attachment. In some cases, NME7AB was substituted with human recombinant NME1 dimers which also induce stem cells to revert to a naïve-like state.
as §2, §3

pIC50: −log10 of the molar value.

As to `CC(C)CC1c2[nH]c3ccccc3c2CCN1C(=O)CCCCCNC(=O)OC(C)(C)C` (centres unmarked) [MN1195], the “inhibition of cancer cell proliferation relative to parent compounds” value with T47D breast cancer cells [1] is given as “inhibit cancer cell proliferation better than parent compounds”. The “inhibition of cancer cell migration” value with T47D breast cancer cells [2] is listed as “improvements over MN1186”.
In the case of `CC(C)CC1c2[nH]c3ccccc3c2CCN1C(=O)CCCCNC(=O)OC(C)(C)C` (centres unmarked) [MN1194], the “effect on primed stem cell pluripotency, growth or differentiation (visually determined)” value in test [3] (6 uM, 3 days) is reported as “barely affected”. In test [4], the “effect on naïve stem cells, score” value is on record as “++++”. In the test on T47D breast cancer cells [2], the “inhibition of cancer cell migration” value is reported as “most potent inhibitors of cancer cell migration”.
On to `CC(C)CC1c2[nH]c3ccccc3c2CCN1C(=O)CCCNC(=O)OC(C)(C)C` (centres unmarked) [MN1190], for which, in the test on T47D breast cancer cells [1], the “inhibition of cancer cell proliferation relative to parent compounds” value is “inhibit cancer cell proliferation better than parent compounds”. In addition, in the test with T47D breast cancer cells [2], the “inhibition of cancer cell migration” value is reported as “improvements over MN1186”.
`CC(C)CC1c2[nH]c3ccc(F)cc3c2CCN1C(=O)C1CCC(CNC(=O)OC(C)(C)C)CC1` (centres unmarked) [MN1266]: the pIC50 with T47D breast cancer cells [2] was 5.89.
With `Cc1sc2c(c1C)C(c1ccc(Cl)cc1)=N[C@@H](CC(=O)OC(C)(C)C)c1nnc(C)n1-2` [JQ1(−), JQ1], the “induction of differentiation of primed state stem cells” value in test [3] (treated for 3 days, bFGF absent) is “None of these agents appeared to induce differentiation”.
With `CC(C)CC1c2[nH]c3ccccc3c2CCN1C(=O)CNC(=O)OC(C)(C)C` (centres unmarked) [MN1186], the “effect on primed state stem cells, score” value in test [3] (6 uM, 3 days, FGF absent) is recorded as “++”. Besides, in test [4], the “effect on naïve stem cells, score” value is on record as “++++”. Moreover, the “inhibition of cancer cell migration” value with T47D breast cancer cells [2] is on record as “most potent inhibitors of cancer cell migration”.
As for `Cc1ccc2[nH]c3c(c2c1)CCN(C(=O)C1CCC(CNC(=O)OC(C)(C)C)CC1)C3CC(C)C` (centres unmarked) [MN1265], in the test with T47D breast cancer cells [2], the pIC50 is 6.11.
Consider `CC(C)CC1c2[nH]c3cc(Cl)ccc3c2CCN1C(=O)CNC(=O)OC(C)(C)C` (centres unmarked) [MN1228], for which, in the test with T47D breast cancer cells [1], the “inhibition of cancer cell proliferation relative to parent compounds” value is given as “inhibit cancer cell proliferation better than parent compounds”. In addition, the “inhibition of cancer cell migration” value with T47D breast cancer cells [2] is on record as “improvements over MN1186”.
For `CC(C)CC1c2[nH]c3cc(F)ccc3c2CCN1C(=O)CCCCNC(=O)OC(C)(C)C` (centres unmarked) [MN1229], the “inhibition of cancer cell proliferation relative to parent compounds” value with T47D breast cancer cells [1] is listed as “inhibit cancer cell proliferation better than parent compounds”. Also, the “inhibition of cancer cell migration” value in the test with T47D breast cancer cells [2] is given as “improvements over MN1186”.
